From publication PMC7663809, “Dual-Inhibitors of N-Myc and AURKA as Potential Therapy for Neuroendocrine Prostate Cancer” (International Journal of Molecular Sciences, 2020)

Tests used:
HO15.19 cells = experiment: Growth / viability in Myc negative cell line HO15.19; format: cell-based
Experimental: (§1) NCI-H660 cells were purchased from the American Type Culture Collection (ATCC) and grown in RPMI medium supplemented with 5% fetal bovine serum (FBS), 1% Isulin-Transferrin-Selenium (Thermo Fisher, 41400-045, Waltham, MA, USA), 10 nM b-estradiol (Sigma, E8875; Darmstadt, Germany), 10 nM hydrocortisone (Sigma H0888), and 1% matrigel. HO15.19 cells were a generous gift from John Sidivy at Brown University and were cultured in Dulbecco’s modified Eagle’s medium (DMEM) (ATCC 30–2002) supplemented with 10% FBS. LNCaP-N-Myc and 22rv1-N-Myc cells were a generous gift from David Rickman at Weill Cornell Medicine (New York, NY, USA) and were cultured in RPMI supplemented with 10% FBS.
Viability of N-Myc -overexpressing LNCaP and 22Rv1 was done with 5000 cells per well in RPMI supplemented with 10% FBS and read with Cell Titer Glo (Promega, cat# G7572; Madison, WI, USA) according to the manufacturer’s protocol. Eagle’s minimum essential medium (EMEM) supplemented with 10% FBS was used for the Myc-negative HO15.19 cells at 2000 cells per well and 20,000 neuroendocrine NCI-H660 cells were plated in RPMI supplemented with 5% FBS, 1% Isulin-Transferrin-Selenium (Thermo Fisher, 41400-045), 10 nM b-estradiol (Sigma, E8875), 10 nM hydrocortisone (Sigma H0888), and 1% matrigel. […]

Myc-Max = Myc-Max luciferase transcription inhibition (Cignal Myc reporter) assay in LNCaP cells; format: cell-based; conditions: Homo sapiens, 24 h, 0-25 μM, 1 day
Experimental: The eGFP Myc transcriptional activity was assayed as previously described. Briefly, cell transfection was performed using TransIT-2020 transfection reagents according to the manufacturer’s instructions. LNCaP cells were plated at 10,000 cells per well and treated for 1 day with the indicated concentration of compound with increasing concentrations (0−25 μM) of compounds for screening and measuring IC50. Myc reporter activity was measured using the Cignal Myc Reporter Assay Kit from Qiagen (#336841; Hilden, Germany) according to the manufacturer’s instructions.

22Rv1 cells = experiment: Cell viability assay, 22Rv1; format: cell-based, human; conditions: for Inhibitory activity in 22Rv1: 1 μM; for Inhibitory activity in 22Rv1 / viability at 5 µM / viability at 10 µM / IC50: 72 h; for viability at 5 µM / viability at 10 µM / IC50: Homo sapiens, 22Rv1; for viability at 5 µM / viability at 10 µM: read-out: % activation (cell viability) in 22Rv1; for IC50 / Growth inhibition of 22Rv1 cells: serial dilution; for IC50: read-out: IC50, growth inhibition of 22Rv1 cells; for Growth inhibition of 22Rv1 cells: up to 10 µM
Experimental: as §1
(§2) Viability of N-Myc -overexpressing LNCaP and 22Rv1 was done with 5000 cells per well in RPMI supplemented with 10% FBS and read with Cell Titer Glo (Promega, cat# G7572; Madison, WI, USA) according to the manufacturer’s protocol. Eagle’s minimum essential medium (EMEM) supplemented with 10% FBS was used for the Myc-negative HO15.19 cells at 2000 cells per well and 20,000 neuroendocrine NCI-H660 cells were plated in RPMI supplemented with 5% FBS, 1% Isulin-Transferrin-Selenium (Thermo Fisher, 41400-045), 10 nM b-estradiol (Sigma, E8875), 10 nM hydrocortisone (Sigma H0888), and 1% matrigel. All cells were incubated for 72 h with the compounds.

LNCaP cells = experiment: Cell viability assay, LNCaP; format: cell-based, human; conditions: for Inhibitory activity in LNCaP: 1 μM; for Inhibitory activity in LNCaP / viability at 5 µM / viability at 10 µM / IC50: 72 h; for viability at 5 µM / viability at 10 µM / IC50: Homo sapiens, LNCaP; for viability at 5 µM / viability at 10 µM: read-out: % activation (cell viability) in LNCaP; for IC50 / Growth inhibition of LNCaP cells: serial dilution; for IC50: read-out: IC50, growth inhibition of LNCaP cells; for Growth inhibition of LNCaP cells: up to 10 µM
Experimental: LNCaP were plated at 5000 cells per well in RPMI 1640 containing 5% CSS in a 96-well plate, treated with test compounds (0–25 μM) for 72 h. Cell density was measured using the PrestoBlue assay according to the manufacturer’s protocol. The percentage of cell survival was normalized to the cell density of control wells treated by vehicle. […]

NCI-H660 cells = experiment: Cell viability assay, NCI-H660; format: cell-based; conditions: 72 h; for Inhibitory activity in NCI-H660: 1 μM; for viability at 5 µM / viability at 10 µM: NCI-H660, read-out: % activation (cell viability) in NCI-H660
Experimental: as §1, §2

N-Myc-Max DBD = N-Myc-Max DBD (Homo sapiens, UniProt P04198+P61244); experiment: Biolayer interferometry: binding of N-Myc-Max complex to biotinylated E-box DNA; conditions: 100 µM and 200 µM
Sequence of N-Myc-Max DBD (P04198 377-464): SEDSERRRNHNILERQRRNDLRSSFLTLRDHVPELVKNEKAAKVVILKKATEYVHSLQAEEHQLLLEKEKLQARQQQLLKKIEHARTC
Sequence of N-Myc-Max DBD (P61244 22-102): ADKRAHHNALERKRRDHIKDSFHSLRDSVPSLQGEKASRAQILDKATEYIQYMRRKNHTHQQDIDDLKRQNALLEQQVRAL
Experimental: The direct interaction between biotinylated E-box oligo immobilized on a streptavidin biosensor and a purified N-Myc-Max complex (0.05 mg/ml) was quantified by BLI using OctetRED (ForteBio). The DNA was first bound to the super-streptavidin sensors. The sensors were next moved into wells containing the reaction buffer (20 mM Tris pH 8, 150 mM NaCl, 5% glycerol, 0.2 mM TCEP, 5% dimethylsulfoxide) for measuring the baseline and next into the N-Myc-Max complex alone or in presence of the tested inhibitors to study the association of the complex to the DNA.

AURKA = target: T1, AURKA (Homo sapiens, UniProt O14965); experiment: Aurora A kinase activity assay (ADP-Glo); format: biochemical; conditions: read-out: AURKA enzyme activity remaining
T1 construct: 10 ng Aurora-A catalytic domain
T1 sequence (O14965 133-383 limits assumed): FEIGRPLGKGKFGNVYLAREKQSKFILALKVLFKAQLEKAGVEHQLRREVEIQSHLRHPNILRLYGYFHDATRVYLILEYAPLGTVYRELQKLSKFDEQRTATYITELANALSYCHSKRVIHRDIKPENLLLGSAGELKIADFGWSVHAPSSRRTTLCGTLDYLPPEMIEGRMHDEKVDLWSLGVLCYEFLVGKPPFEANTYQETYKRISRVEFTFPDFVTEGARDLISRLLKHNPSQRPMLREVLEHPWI
Experimental: AURKA kinase assays were performed using the ADP-Glo Kinase assay (Promega) according to the manufacturer protocol. Measurement of Aurora-A activity was carried out using reactions containing (per well):10 ng Aurora-A catalytic domain, 50 uM ATP, and 0.5 myelin basic protein (MBP), in 5% dimethyl sulfoxide (DMSO). Reactions were incubated at room temperature for 60 min, and luminescence data (integration time: 0.5–1 s) was recorded on a Tecan M200 Pro reader (Männedorf, Switzerland).

Structure (SMILES) | IC50 (Myc-Max) | Inhibitory activity in 22Rv1 (22Rv1 cells) | viability at 5 µM (22Rv1 cells) | viability at 10 µM (22Rv1 cells) | IC50 (22Rv1 cells) | Inhibitory activity in LNCaP (LNCaP cells) | viability at 5 µM (LNCaP cells) | viability at 10 µM (LNCaP cells) | IC50 (LNCaP cells) | Inhibitory activity in NCI-H660 (NCI-H660 cells) | viability at 5 µM (NCI-H660 cells) | viability at 10 µM (NCI-H660 cells) | Disruption of DNA binding to N-Myc-Max DBD (BLI) (N-Myc-Max DBD) | Growth inhibition of 22Rv1 cells (22Rv1 cells) | Growth inhibition of LNCaP cells (LNCaP cells) | other results
O=C(Nc1ccc(Nc2nccc(Nc3cc(C4CCCC4)[nH]n3)n2)cc1)Nc1cccc(C(F)(F)F)c1 [CD532, reference compound] |  |  |  |  |  |  |  |  |  |  |  |  |  |  |  | Cytotoxicity in N-Myc negative cell line HO15.19 (HO15.19 cells; 10, 5 and 1 µM, 72 h): cytotoxicity
N#Cc1ccc(NNC(=O)c2ccc(C(F)(F)F)cc2)c(C(F)(F)F)c1 [compound 70551, N′-[4-cyano-2-(trifluoromethyl)phenyl]-4-(trifluoromethyl)benzohydrazide] | 4 µM | no significant inhibitory activity | > 75% | 78.8% | 15.6 µM | no significant inhibitory activity | > 75% | 49.7% | 11.1 µM | no significant inhibitory activity | > 75% | 49.2% | weak disruption |  |  | Toxicity in HO15.19 (HO15.19 cells; 20 μM, 120 h): slight toxicity; Effect on HO15.19 growth (HO15.19 cells; N-Myc null cell line, 120 h, below 20 μM): minimal effect
O=[N+]([O-])c1ccc(Nc2ccccc2-c2ccccc2)c2nonc12 [10074-G5, reference compound] |  |  |  |  |  |  |  |  |  |  |  |  |  | ineffective | ineffective | 
N#Cc1ccc(NNC(=O)c2ccc(Nc3nccc(Nc4cc(C5CCCC5)n[nH]4)n3)cc2)c(C(F)(F)F)c1 [compound 70812] | 2 µM | No discernable inhibitory activity | 66.5% | 16.6% | 3.71 µM | No discernable inhibitory activity | 32.5% | 1.4% | 3.05 µM | No discernable inhibitory activity | 82.9% | 52.1% | effectively disrupt |  |  | remaining activity at 5 µM (AURKA; 5 µM compound): 21.1%; remaining activity at 10 µM (AURKA; 10 µM compound): 19.9%; remaining activity at 15 µM (AURKA; 15 µM compound): 18.7%; remaining activity at 30 µM (AURKA; 30 µM compound): 21.4%
CCc1ccc(/C=C2/SC(=S)NC2=O)cc1 [10058-F4, reference compound] |  |  |  |  |  |  |  |  |  |  |  |  |  | ineffective | ineffective | 
